Laboratory results taken from PMC3715890, “A Cyclic Peptide Inhibitor of HIF-1 Heterodimerization That Inhibits Hypoxia Signaling in Cancer Cells” (Journal of the American Chemical Society, 2013).

What was measured:
[1] = system: HIF-1 (HIF-dependent luciferase reporter, U2OS-HRE-luc cells); test: HIF-1-dependent luciferase reporter assay, U2OS-HRE-luc; format: cell-based, human; details: U2OS-HRE-luc
Protocol: The ability of P1–P3 to disrupt HIF-1 function in cells was assessed using a HIF-1-dependent luciferase reporter assay.[15],[21] The assay uses human osteosarcoma U2OS cells, stably transfected with a HIF-dependent luciferase reporter construct (U2OS-HRE-luc), where activation of HIF results in an increase in luciferase expression.[15]
(§1) Endogenous HIF-1 luciferase reporter assays were conducted as previously reported in U2OS-HRE-luc[15] and MCF-7 cells.[46] For plasmid-expressed HIF-α luciferase reporter assays, MCF-7 and U2OS cells were transiently transfected with plasmids expressing HIF-1α, HIF-2α, or a blank control (pcDNA3.1-HIF-1α, pcDNA3.1-HIF-2α, or pcDNA3.1), a renilla-encoding control (phRL-TK), and a HIF-dependent firefly luciferase reporter construct (pGL2-TK-HRE), using Transfast (Promega) according to the manufacturer’s instructions. After 24 h, cells were recovered and plated (4000 cells/well) in 96-well plates (Perkin-Elmer) and incubated for 5 h before either hypoxic or aerobic incubation in presence or absence of cyclic peptide inhibitors. Firefly and renilla activities were determined using Dual-Glo Reagent (Promega) according to the manufacturer’s instructions. The luciferase signal was normalized using the corresponding renilla values.
(§2) Cells were treated with the stated concentrations of inhibitor (P1, P2, or P3) and incubated in normoxia for 4 h, followed by incubation in a hypoxic environment. All manipulation of cell pellets (e.g., lysis, mRNA, and protein extraction) was conducted in a hypoxic environment.

[2] = system: U2OS-luc control cell line stably expressing luciferase; test: Control constitutive luciferase reporter, U2OS-luc; format: cell-based, human
From the text: Figure S3: Identification of cyclic peptide HIF-1 inhibitors. (A) SICLOPPS expression is induced by arabinose, which processes to give a member of the cyclic peptide library. A dimerization inhibitor would be expected to rescue growth of the HIF-1 RTHS on selective media plates containing IPTG, kanamycin and 3-amino-triazole, and arabinose. (B) The ability of the selected cyclic peptides to […]
HIF-1 RTHS containing the corresponding SICLOPPS plasmid onto selective media. In the absence of arabinose the SICLOPPS split-intein is not produced; the HIF-1 RTHS containing plasmids encoding […]
colonies show survival on selective media plates containing IPTG and arabinose (panel 2). Expressing the 3 selected cyclic peptides from mutant SICLOPPS inteins (H24A, F26A mutations in the C- […]
cyclic form of the peptides and their activity. […]
expressing a constitutive luciferase reporter construct. […]

[3] = system: VEGF mRNA in hypoxic MCF-7 cells; test: VEGF mRNA qPCR, MCF-7; format: cell-based; details: MCF-7, hypoxia 16 h, 100 μM
Protocol: as §2
(§3) Total RNA was extracted from MCF-7 and U2OS cells using RNeasy Mini Kit (74104, QIAGEN) and quantified using a Nanodrop ND-1000 spectrophotometer. Complementary DNA was synthesized in a 20 μL reaction containing 1 μg of total RNA, using qScript cDNA SuperMix (95048-100, Quanta Biosciences) according to the manufacturer’s instructions. Quantitative real-time PCRs were performed using Universal Taqman PCR master mix (Applied Biosystems) >and the Taqman gene expression assay of interest (Applied Biosystems) on an ABI StepOnePlus Real-Time PCR system (Applied Biosystems). Expression assays used in this study were HIF-1α (00936376_m1), VEGF-A (Hs00173626_m1), CAIX (Hs00154208_m1), LOX (Hs00942480_m1), HIF2α (Hs01026149_m1), CITED2 (Hs01897804_s1), and 18S (Hs99999901_m1). All expression values were normalized using expression of 18S.

[4] = system: VEGF protein in hypoxic MCF-7 cells; test: VEGF protein ELISA, MCF-7; format: cell-based, human; details: MCF-7, hypoxia, 100 μM
Protocol: Cells were treated with the stated concentrations of inhibitor (P1, P2, or P3) and incubated in normoxia for 4 h, followed by incubation in a hypoxic environment. All manipulation of cell pellets (e.g., lysis, mRNA, and protein extraction) was conducted in a hypoxic environment. […]
manufacturer’s instructions.
The loaded beads were washed and blocked with the provide buffers. […]
reagent (RPN2232, GE Healthcare).
Fluorescent binding assay
Scientific, catalogue no. […]
followed by washing with 3 × 200 µL ELISA buffer. 95 µL of EMSA buffer was added to […]
The fluorescence of each well at
Isothermal Titration Calorimetry […]
iTC200 system (GE Healthcare).
P2) was dissolved in the same buffer.
Control experiments for P1 or P2
Quantification of VGEF-A protein by ELISA […]
incubation in hypoxia for 16h. VEGF-A protein concentration was quantified by human

[5] = system: tubule formation in hypoxic human umbilical vein endothelial cells (HUVEC); test: HUVEC tubularization; format: cell-based; details: 250 μM
[6] = system: CAIX mRNA in hypoxic MCF-7 cells; test: CAIX mRNA qPCR, MCF-7; format: cell-based; details: MCF-7, hypoxia, 100 μM
Protocol: as §2, §3

[7] = system: CAIX mRNA in hypoxic U2OS cells; test: CAIX mRNA qPCR, U2OS; format: cell-based, human; details: hypoxia, 100 μM
Protocol: as §2, §3

[8] = system: HIF-2 (HIF-dependent luciferase reporter, MCF-7 cells); test: HIF-2 luciferase reporter assay, MCF-7; format: cell-based; details: MCF-7, transfected HIF-2α
From the text: (§4) In addition, P1 had no effect on VEGF protein levels in hypoxic 786-O cells (Figure 6B). To further probe the effect of P1 on HIF-2, a luciferase reporter assay was developed and used. The assay was derived from the HIF-1 luciferase reporter assay detailed above (Figure 2C and D) and adapted for HIF-2 by replacing the plasmid encoding HIF-1α with the equivalent plasmid encoding HIF-2α. […] P2 and P3 also had no effect on HIF-2 in this assay (Figure S9).
as §1

[9] = system: HIF-2 (HIF-dependent luciferase reporter, U2OS cells); test: HIF-2 luciferase reporter assay, U2OS; format: cell-based, human; details: transfected HIF-2α
From the text: as §4, §1

Tat-cyclo-CRLMVL (head to tail) [P2, cyclo-CRLMVL tagged with Tat peptide via a disulfide bond; used as negative control]
effect on luciferase reporter in hypoxia ([1]; hypoxia (1% O2)): did not show an effect | effect on luciferase reporter in normoxia (basal) ([1]; normoxia): did not show an effect | effect on constitutive luciferase signal [2]: do not affect | VEGF mRNA [3]: had no effect | VEGF protein level [4]: has no effect in either cell line | HUVEC tubularization / tubule length [5]: has no effect | CAIX mRNA [6]: no effect | CAIX mRNA [7]: no effect | effect on HIF-2 luciferase reporter signal [8]: do not affect | effect on HIF-2 luciferase reporter signal [9]: do not affect
